Experimental data: patent US20250129033A1, “METAP2 INHIBITORS AND USES THEREOF” (Yissum Research Development Company of the Hebrew …, priority 2022, published 2025)

How the values were obtained:
[1] = tested on: Choroidal Neovascularization (CNV); test: Laser-induced CNV in mice; assay type: in vivo, C57Bl/6J mice; details: 12 μg per eye, intravitreal, 7 days
Description: Laser-induced CNV was generated by a previously described technique with some modifications. C57Bl/6J mice (6-8 weeks) were anesthetized by intraperitoneal injections of a mixture of 85% ketamine and 15% xylazine. A mixture of 0.5% tropicamide and 0.5% phenylephrine hydrochloride was applied to both eyes to dilate the pupils. Lesions were induced by a diode pumped solid state laser (0.1 s; spot size, 100 μm; power 120 mW) around the optic nerve through a slit lamp delivery system using a Nidek while a hand-held cover slide was used as a contact lens. Only lesions in which a subretinal bubble or focal serous detachment of the retina developed were used for the experiments. For this purpose, 4 burns were performed per eye while leaving a space around the optic disc. Intravitreal injections of the treatments were performed using a PLI-100 Pico-Injector following the laser procedure. After 7 days mice were euthanized and their eyes were removed and fixed in 4% paraformaldehyde for 60 min. The cornea and lens were removed, and the entire retina was carefully dissected from the eyecup Choroid.
Blood vessels were labeled using a 1:200 dilution of isolectin IB4 conjugated with Alexa Fluor 488 or lectin-FITC. The eyecup was flat-mounted in an aqua-mount with the sclera facing down and the choroid facing up. […] The CNV area (presented in μm2) in choroidal flat mount was evaluated using ImageJ software […]

A375 cells = test: A375 proliferation assay (MTT); assay type: cell-based, human; details: 1-100 μM, 72 h, dose-dependent
Protocol: Human Umbilical Vein Endothelial Cells (HUVECs) or human melanoma cell line (A375) were used to validate the ability of the compound to suppress endothelial cell proliferation. Each 1500 A375 cells/well or 2000 HUVEC cells/well were seeded in a 96 wells plate and allowed to adhere to the plate for few hours. Compounds were then added to the cells at concentration range of 0.05-10 μM (<0.1% DMSO). Cells were then incubated for additional 72 hours and MTT was done (2 to 3 h at 37° C.). The dye was solubilized with DMSO and the absorbance was determined at 570 nm.
A375 were seeded (2000 cells/well) exposed to TNP-470 and to arrange concentrations of AD-3281 (1-100 μM) cells were incubated for 72 h at 37° C., After incubation, MTT (Sigma Aldrich, St. Louis City, MO, USA) was added (0.5 mg/mL) into each well for viability detection and incubated at 37° C. and 5% CO2 for 40 minutes. The absorbance was measured at 540 nm using a plate reader (Wallac 1420 VICTOR plate reader, Perkin-Elmer Life Sciences, USA). The proliferation of HUVECs was measured under the same conditions. HUVECs were seeded (3000 cells/well) in 96-well plates […]

[2] = target: T1, MetAp2 in A375 cancer cells (Homo sapiens, UniProt P50579); test: MetAp2 enzymatic activity in A375 cell homogenate; assay type: biochemical; details: 2.5 μM
T1 construct: host or cells: A375 cell homogenate (RIPA supernatant, 5 µg protein)
T1 sequence (P50579 whole entry): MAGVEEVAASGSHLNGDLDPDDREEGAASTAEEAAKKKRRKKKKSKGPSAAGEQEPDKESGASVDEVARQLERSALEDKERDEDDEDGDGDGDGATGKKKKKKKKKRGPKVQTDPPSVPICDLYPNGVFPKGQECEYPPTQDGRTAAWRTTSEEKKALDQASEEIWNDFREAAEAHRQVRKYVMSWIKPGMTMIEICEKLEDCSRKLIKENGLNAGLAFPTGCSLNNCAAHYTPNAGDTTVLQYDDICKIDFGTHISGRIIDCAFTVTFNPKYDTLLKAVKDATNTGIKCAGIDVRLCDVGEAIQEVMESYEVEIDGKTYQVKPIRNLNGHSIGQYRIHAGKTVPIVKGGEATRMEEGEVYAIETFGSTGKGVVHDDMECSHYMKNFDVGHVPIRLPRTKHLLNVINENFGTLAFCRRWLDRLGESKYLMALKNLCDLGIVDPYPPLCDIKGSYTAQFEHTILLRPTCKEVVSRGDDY
Protocol: A375 and MDA-MB-231 were sub cultivated using trypsin, then centrifuge and counted. To obtain a homogenate containing an equivalent cell number, cells were resuspended in an appropriate volume of cold RIPA containing a protease inhibitor cocktail. Insoluble cellular components were removed by centrifugation at 15,000 RPM for 10 min at 4° C. The protein content of the supernatant was determined according to the Bradford protein assay using BSA as the standard.
The enzymatic assay was performed using 5 μg protein per sample as described previously. […] An increase of fluorescence, due to substrate degradation during the enzymatic assay, was measured every 20 seconds for 1 h and 30 min at 37° C. using a plate reader (Wallac 1420 VICTOR plate reader, Perkin-Elmer Life Sciences, USA). […]
A375 and MDA-MB-231 were sub-cultivated using trypsin, then centrifuged and counted. […] The protein content of the supernatant was determined according to the Bradford protein assay using BSA as the standard. […] An increase of fluorescence, due to substrate degradation during the enzymatic assay, was measured every 20 seconds for 1 h and 30 min at 37° C. using a plate reader (Wallac 1420 VICTOR plate reader, Perkin-Elmer Life Sciences, USA). […]

- inhibition of MetAp2 activity in A375 after 10 minutes ([2]; 10 minutes of exposure): Significant inhibition
- reduction of MetAp2 enzymatic activity in A375 ([2]; over the course of 1 h): 64%
SMILES: COC1C(OC(=O)CC23CC4CC(CC(C4)C2)C3)CCC2(CO2)C1C1(C)OC1CC=C(C)C (stereo not shown) [AD-3281, Fumagillol-1-adamantylacetate]
- effect on mouse laser induced CNV [1]: 46%
- reduction in A375 cancer cell proliferation (A375 cells): 37-63%
